According to US7527935B2, “G-protein coupled receptor having eicosanoid as ligand and gene thereof” (Mitsubishi Tanabe Pharma Corporation, priority 2002, dated 2009):

Experiments:
[1] = target: T1, fusion protein of TG1019 protein and Giα1 (Homo sapiens, UniProt P63096+Q8TDS5, C351I/D111G/K206E/T295A); assay: Antagonist assay: inhibition of 5-oxo-ETE-stimulated G-protein activation ([35S]GTPγS binding) of TG1019-Giα1 fusion membrane fraction; format: biochemical; settings: inhibition of G-protein activating effect of TG1019 by 5-oxo-ETE 0.1 μM
T1 construct: made in house; host or cells: Sf9 insect cells (baculovirus, pVL1392), membrane fraction
Method: In the presence of 5-oxo-ETE (a ligand which acts as an agonist) and a test compound, a G-protein activating effect of TG1019 protein based on 5-oxo-ETE stimulation was detected, and an antagonistic effect of the test compound was examined.
Detection of the G-protein activation was carried out in a similar manner as in Example 3 (3) mentioned above, using a membrane fraction containing a fusion protein of TG1019 protein and Giα1 and a labeled GTPγS.
Specifically, a membrane fraction (450 μl) containing a fusion protein of TG1019 protein and Giα1 was suspended in a reaction solution (7.54 ml), and added thereto was 10 μl of GDP (10 mM). To 160 μl of this solution were added 5-oxo-ETE (the final concentration of 0.1 μM) and a test compound at various concentrations (0M, 10^−7M -10^−5M), and the mixture was incubated at 30° C. for 10 minutes (a total amount of 5-oxo-ETE and the test compound: 20 μl).
Added thereto was 20 μl of [^35S] GTPγS to start a reaction. After incubation at 30° C. for one hour, the reaction was terminated by filtration through a glass filter.
An amount of the [^35S] GTPγS (a binding amount to the membrane fraction) on the filter was measured by liquid scintillation counting. From the thus measured [^35S] GTPγS amount was subtracted a nonspecific binding amount (a binding amount measured in the presence of 10 μM GTPγS), to obtain a specific binding amount.

[2] = target: T2, fusion protein of TG1019 protein and Giα1 (351Cys→Ile) (Homo sapiens, UniProt P63096+Q8TDS5, C351I/D111G/K206E/T295A); assay: [35S]GTPγS binding to membrane fraction containing TG1019-Giα1 (351Cys→Ile) fusion protein (ligand identification); format: biochemical; settings: membrane fraction with TG1019-Giα1 (351Cys→Ile) fusion protein
T2 construct: made in house; host or cells: Sf9 insect cells (baculovirus, pVL1392), membrane fraction
Excerpt: (§1) As stated in Example 1, it is concluded that TG1019 protein is a G-protein coupled receptor. Therefore, using a membrane fraction containing fused protein of TG1019 and G-protein, a ligand is identified as follows, according to a method for detecting a ligand-dependent binding with GTPγS (guanosine 5′-O-(3-thiotriphosphate)) [Wenzel-Seifert, et al., Mol. Pharmacom., Vol. 58, pp. 954-966, 2000; Bahia, et al., Biochemistry, Vol. 37, pp. 11555-11562, 1998].
Sf9 cells were inoculated onto a 10 cm Petri dish coated with collagen to about 70% confluence, and added thereto were Virus solution III (100 μl) obtained above and 12 ml of a culture medium, and the mixture was cultured at 27° C. for 4 days. The obtained cells were washed with a cooled PBS (Phosphate buffered saline, pH 7.4), and suspended in 3.6 ml of a cooled solution buffer [20 mM Tris-HCl, pH 7.5, 1 mM EDTA, 0.2 mM phenylmethylsulfonyl fluoride, 10 μg/ml pepstatin, 10 μg/ml leupeptin, and 2 μg/ml aprotinin], and the cells were homogenized by means of a Teflon homogenizer. This cell homogenate was centrifuged (600×g, 10 minutes), and the resultant supernatant was further centrifuged (50,000×g, 20 minutes). The obtained sediments were suspended in 450 μl of a cooled reaction buffer [20 mM Tris-HCl, pH 7.5, 50 mM sodium chloride, 10 mM magnesium chloride] by means of a Teflon homogenizer, to prepare a membrane fraction containing a fusion protein.
The membrane fraction (450 μl) obtained above (2) was suspended in a reaction buffer (7.54 ml), and added thereto was GDP (10 mM, 10 μl). To 160 μl of this solution was added 20 μl of a test compound. After incubating the mixture at 30° C. for 10 minutes, 20 μl of [^35S] GTPγS (5 nM, 5 nCi/μl: available from Amersham Pharmacia Biotech) was added to start reaction. After incubating the mixture at 30° C. for one hour, the reaction was terminated by filtration through a glass filter (UniFilter-96GF/B, available from Packard). The filter was washed with 200 μl of a cooled reaction buffer for 3 times, and an amount of the [^35S] GTPγS (a binding amount to the membrane fraction) on the filter was measured by liquid scintillation counting. From the thus measured [^35S] GTPγS binding amount was subtracted a nonspecific binding amount (a binding amount measured in the presence of 10 μM GTPγS), to obtain a specific binding amount of [^35S ] GTPγS.

[3] = tested on: TG1019 (5-oxo-ETE receptor); assay: Intracellular calcium level in CHO cells stably expressing TG1019; format: cell-based, human; settings: FuraII 340/380 nm ratio
Method: (1) Preparation of cells stably expressing TG1019 Cells stably expressing TG1019 (the receptor protein of the present invention) and cells not expressing TG1019 were prepared by introducing to CHO cells the TG1019 protein expression vector prepared in Example 5 and the control vector, as described below.
The cells stably expressing TG1019 prepared in the above section (1) was incubated in DMEM/F12 medium supplemented with 10% fetal bovine serum at 37° C. in a CO2 incubator. To the cells which were 80 to 90% confluent, was added a cell dissociation buffer (Cell Dissociation Buffer Enzyme-free PBS-based, available from Invitrogen), and cells were dissociated by incubating at 37° C. for 5 minutes. […]
The cells after loading were centrifuged once with an assay buffer, to remove supernatant, and then, they were suspended in an assay buffer to have a concentration of 3.7 to 6.3×10^6 cells/ml. This cell suspension was portioned into a 96 well plate by 80 μl/well, and the plate was set in a fluorescence measuring device (FDSS6000, [Hamamatsu Photonics]), and the reaction was started by adding a solution containing 5-oxo-ETE or 5-HETE in a 5 fold concentration dissolved in an assay buffer, by 20 μl/well. The measurement was done by measuring fluorescence intensity at 510 nm, with excitation wavelength of 340 nm and 380 nm.

[4] = target: T3, fusion protein of TG1019 protein and Gqα (Homo sapiens, UniProt Q8TDS5, D111G/K206E/T295A); assay: [35S]GTPγS binding to membrane fraction containing TG1019-Gqα fusion protein; format: biochemical; settings: membrane fraction with TG1019-Gqα fusion protein; increase small compared to Giα
T3 construct: made in house; host or cells: Sf9 insect cells (baculovirus, pVL1392), membrane fraction
Excerpt: as §1
Sf9 cells were inoculated onto a 10 cm Petri dish coated with collagen to about 70% confluence, and added thereto were Virus solution III (100 μl) obtained above and 12 ml of a culture medium, and the mixture was cultured at 27° C. for 4 days. […]
The membrane fraction (450 μl) obtained above (2) was suspended in a reaction buffer (7.54 ml), and added thereto was GDP (10 mM, 10 μl). […] GTPγS (a binding amount to the membrane fraction) on the filter was measured by liquid scintillation counting. From the thus measured [^35S] GTPγS binding amount was subtracted a nonspecific binding amount (a binding amount measured in the presence of 10 μM GTPγS), to obtain a specific binding amount of [^35S ] […]

[5] = tested on: PC3 human prostate cancer cells; assay: Apoptosis analysis (annexin V / PI flow cytometry) in PC3 cells; format: cell-based; settings: 20 μl of 1 mM DHA in 2 ml, 2 hours
Method: PC3 human prostate cancer cells, which had been cultured in RPMI1640 culture medium supplemented with 10% fetal bovine serum were dissociated by trypsin-EDTA solution (GibcoBRL), and suspended in RPMI1640 culture medium supplemented with 0.5% fetal bovine serum. The cells were plated onto a 6 cm Petri dish to 2×10^5 cells/dish, and cultured at 37° C. for 18 hours in a CO2 incubator. The supernatant was removed and 1980 μl of the same medium was added, and 20 μl of 1 mM DHA was further added thereto, and the mixture was cultured at 37° C. for 2 hours in a CO2 incubator.
In addition, as a test in the presence of 5-oxo-ETE, 1960 μl of RPMI1640 culture medium supplemented with 0.5% fetal bovine serum was added, and 20 μl of a 100 μM 5-oxo-ETE solution and 20 μl of a 1 mM DHA solution were further added thereto, and the cells were cultured in a similar manner as described above.
The adhered cells were removed by a cell scraper, transferred to a 1.5 ml tube, and centrifuged at 800×g for 5 minutes at 4° C., to collect suspended and adhered cells. […] The cells were suspended in 100 μl of a FITC-Annexin solution, and after 15 minutes of reaction under light-shielded condition at room temperature, 300 μl of Binding buffer was added thereto, and the FITC-Annexin bound to the cells and propidium iodide (PI) uptake into the cells were measured, by means of flow cytometer [Becton Dickinson].

T2 sequence (Q8TDS5+P63096 fused Q8TDS5:D111G/Q8TDS5:K206E/Q8TDS5:T295A/P63096:C351I): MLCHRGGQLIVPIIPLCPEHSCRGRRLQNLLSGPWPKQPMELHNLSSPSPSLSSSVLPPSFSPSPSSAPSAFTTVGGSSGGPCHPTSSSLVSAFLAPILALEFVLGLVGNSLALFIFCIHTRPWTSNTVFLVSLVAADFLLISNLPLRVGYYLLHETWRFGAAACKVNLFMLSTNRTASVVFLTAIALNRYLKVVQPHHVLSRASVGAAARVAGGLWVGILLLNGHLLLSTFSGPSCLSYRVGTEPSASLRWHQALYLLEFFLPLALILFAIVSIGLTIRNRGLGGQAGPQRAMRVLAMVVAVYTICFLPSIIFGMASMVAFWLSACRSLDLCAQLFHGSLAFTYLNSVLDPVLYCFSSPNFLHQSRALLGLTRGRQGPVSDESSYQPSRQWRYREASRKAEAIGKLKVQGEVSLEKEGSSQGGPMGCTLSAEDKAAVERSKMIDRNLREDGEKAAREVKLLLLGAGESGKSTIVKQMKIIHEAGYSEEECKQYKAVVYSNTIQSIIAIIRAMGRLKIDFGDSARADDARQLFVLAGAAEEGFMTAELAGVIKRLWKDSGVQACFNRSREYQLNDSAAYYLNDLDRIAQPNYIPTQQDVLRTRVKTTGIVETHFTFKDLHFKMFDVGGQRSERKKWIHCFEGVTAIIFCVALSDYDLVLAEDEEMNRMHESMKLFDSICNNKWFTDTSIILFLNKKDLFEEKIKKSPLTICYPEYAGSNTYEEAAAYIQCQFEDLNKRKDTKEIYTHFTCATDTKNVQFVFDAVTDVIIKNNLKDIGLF
T1 sequence (Q8TDS5+P63096 fused Q8TDS5:D111G/Q8TDS5:K206E/Q8TDS5:T295A/P63096:C351I): as above
T3 sequence (Q8TDS5 with tags, fused parts or gaps D111G/K206E/T295A): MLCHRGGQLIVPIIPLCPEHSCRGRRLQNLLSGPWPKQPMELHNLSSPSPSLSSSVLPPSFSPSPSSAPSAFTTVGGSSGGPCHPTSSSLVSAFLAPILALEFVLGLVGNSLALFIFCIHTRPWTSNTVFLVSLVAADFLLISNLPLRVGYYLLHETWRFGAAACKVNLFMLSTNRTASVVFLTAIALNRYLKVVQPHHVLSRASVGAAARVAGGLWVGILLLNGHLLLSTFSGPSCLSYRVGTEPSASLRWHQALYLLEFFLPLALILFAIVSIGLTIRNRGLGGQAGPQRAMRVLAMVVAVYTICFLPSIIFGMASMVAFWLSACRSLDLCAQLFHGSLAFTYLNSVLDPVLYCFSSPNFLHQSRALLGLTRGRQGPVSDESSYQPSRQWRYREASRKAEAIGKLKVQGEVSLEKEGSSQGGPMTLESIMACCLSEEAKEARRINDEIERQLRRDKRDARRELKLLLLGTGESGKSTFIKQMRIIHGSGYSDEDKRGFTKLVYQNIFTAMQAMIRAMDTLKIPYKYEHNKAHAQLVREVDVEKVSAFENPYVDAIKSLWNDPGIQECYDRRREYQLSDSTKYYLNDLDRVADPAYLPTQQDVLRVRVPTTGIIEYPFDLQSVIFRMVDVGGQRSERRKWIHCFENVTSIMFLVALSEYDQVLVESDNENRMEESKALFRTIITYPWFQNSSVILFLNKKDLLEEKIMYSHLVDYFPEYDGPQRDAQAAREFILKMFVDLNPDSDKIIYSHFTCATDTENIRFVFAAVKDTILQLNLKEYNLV

CCCCC/C=C\C/C=C\C/C=C\CCCCCCC(=O)O [Dihomo-γ-linolenic accid]
IC50 [1]: 3.7 ± 0.7 µM

CCCCCCCC/C=C\C/C=C\C=C\C(O)CCCC(=O)O (centres unmarked) [5-HETrE, 5-hydroxyeicosa-6E,8Z,11Z-trienoic acid]
specific binding amount of [35S]GTPγS [2]: increased in a concentration-dependent manner

CCCCC/C=C\C/C=C\C/C=C\C=C\C(O)CCCC(=O)O (centres unmarked) [5-HETE, 5-hydroxyeicosa-6E,8Z,11Z,14Z-tetraenoic acid]
change in intracellular calcium level [3]: increase in intracellular calcium level | specific binding amount of [35S]GTPγS [2]: increased in a concentration-dependent manner

CCCCCCCCC#CCC#CCC#CCCCC(=O)O [ETI, 5,8,11-eicosatriynoic acid]
specific binding amount of [35S]GTPγS [2]: increased in a concentration-dependent manner

CC/C=C\C/C=C\C/C=C\C/C=C\C/C=C\CCCC(=O)O [EPA, 5Z, 8Z, 11Z, 14Z, 17Z-eicosapentaenoic acid]
IC50 [1]: 6 ± 1.2 µM

CCCCCCCC/C=C\C/C=C\C/C=C\CCCC(=O)O [eicosa-5Z,8Z,11Z-trienoic acid]
specific binding amount of [35S]GTPγS [2]: increased in a concentration-dependent manner

CCCCC/C=C\C/C=C\C/C=C\C=C\C(CCCC(=O)O)OO (centres unmarked) [5-HPETE, 5-hydroperoxyeicosa-6E,8Z,11Z,14Z-tetraenoic acid]
specific binding amount of [35S]GTPγS [2]: increased in a concentration-dependent manner | specific binding amount of [35S]GTPγS [4]: increased

CCCCC/C=C\C/C=C\C/C=C\C/C=C\CCCC(=O)O [arachidonic acid]
specific binding amount of [35S]GTPγS [2]: increased in a concentration-dependent manner

CC/C=C\C/C=C\C/C=C\CCCCCCCCCC(=O)O [Eicosa-11Z, 14Z, 17Z-trienoic acid]
IC50 [1]: 5.1 ± 0.6 µM

CC/C=C\C/C=C\C/C=C\C/C=C\C/C=C\C/C=C\CCC(=O)O [DHA, 4Z, 7Z, 10Z, 13Z, 16Z, 19Z-docosahexaenoic acid]
induction of apoptosis (cells annexin positive, PI uptake negative) [5]: induces apoptosis of PC3 cells | IC50 [1]: 1.6 ± 0.2 µM

CCCCCCCCCCC/C=C\C/C=C\CCCC(=O)O [eicosa-5Z,8Z-dienoic acid]
specific binding amount of [35S]GTPγS [2]: increased in a concentration-dependent manner
